Patent US10183950B2, “Thienopyrimidine inhibitors of atypical protein kinase C” (Cancer Research Technology Limited, priority 2011, dated 2019)

target: T1, kinase-domain human PKCι (Homo sapiens, UniProt P41743); assay: PKCι IC50 IMAP fluorescence polarisation assay, kinase-domain enzyme; assay type: biochemical; conditions: kinase domain PKCi at 2 μM ATP; read-out: IC50 in IMAP assay against kinase domain PKCi
T1 construct: Recombinant, kinase-domain human PKCι is expressed and purified in-house; made in house
T1 sequence (P41743 254-522 limits assumed): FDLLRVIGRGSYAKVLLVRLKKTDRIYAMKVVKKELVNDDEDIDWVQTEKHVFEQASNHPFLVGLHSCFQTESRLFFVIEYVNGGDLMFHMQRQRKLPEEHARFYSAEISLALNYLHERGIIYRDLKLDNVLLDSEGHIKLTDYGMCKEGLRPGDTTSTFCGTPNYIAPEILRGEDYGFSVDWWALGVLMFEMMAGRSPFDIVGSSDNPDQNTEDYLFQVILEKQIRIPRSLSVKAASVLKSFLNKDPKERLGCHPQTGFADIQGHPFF

First: CC(C)(C)c1cc2nc(-c3ccncc3)nc(NCCN)c2s1 [compound 311, N*1*-(6-tert-Butyl-2-pyridin-4-yl-thieno[3,2-d]pyrimidin-4-yl)-ethane-1,2-diamine]
Second: Cc1csc2c(NCCN)nc(-c3ccncc3)nc12 [compound 370, N*1*-(7-Methyl-2-pyridin-4-yl-thieno[3,2-d]pyrimidin-4-yl)-ethane-1,2-diamine]
The IC50 of the first is higher: 10 to 40 µM for the first, 0.1 to 1 µM for the second.

First: Cc1csc2c(OC[C@@H](N)Cc3ccccc3)nc(-c3ccncc3)nc12 [compound 481, (S)-1-(7-Methyl-2-pyridin-4-yl-thieno[3,2-d]pyrimidin-4-yloxymethyl)-2-phenyl-ethylamine]
Second: Cc1csc2c(O[C@@H]3CCNC3)nc(-c3ccncc3)nc12 [compound 484, 7-Methyl-2-pyridin-4-yl-4-((R)-pyrrolidin-3-yloxy)-thieno[3,2-d]pyrimidine]
The IC50 of the first is higher: 10 to 40 µM for the first, 1 to 10 µM for the second. The second is the more potent here.

First: Clc1cccc2sc3c(N4CCNCC4)nc(-c4ccncc4)nc3c12 [compound 387, 9-Chloro-4-piperazin-1-yl-2-pyridin-4-yl-benzo[4,5]thieno[3,2-d]pyrimidine]
Second: Clc1cccc2sc3c(N[C@@H]4CCNC4)nc(-c4ccncc4)nc3c12 [compound 384, (9-Chloro-2-pyridin-4-yl-benzo[4,5]thieno[3,2-d]pyrimidin-4-yl)-(R)-pyrrolidin-3-yl-amine]
The IC50 of the first is lower: 0.1 to 1 µM for the first, 1 to 10 µM for the second. The first is the more potent here.

Cc1cc(C)c2c(n1)sc1c(N3CCCNCC3)nc(-c3ccncc3)nc12 [compound 381, 4-[1,4]Diazepan-1-yl-7,9-dimethyl-2-pyridin-4-yl-pyrido[3′,2′:4,5]thieno[3,2-d]pyrimidine] and Cc1cc(C)c2c(n1)sc1c(N3CCNCC3)nc(-c3ccncc3)nc12 [compound 380, 7,9-Dimethyl-4-piperazin-1-yl-2-pyridin-4-yl-pyrido[3′,2′:4,5]thieno[3,2-d]pyrimidine] fall in the same range of IC50: 1 to 10 µM for the first, 1 to 10 µM for the second.

First: C[C@@H](N)CNc1nc(-c2ccncc2)nc2c1sc1ncccc12 [compound 379, (R)-N*1*-(2-Pyridin-4-yl-pyrido[3′,2′:4,5]thieno[3,2-d]pyrimidin-4-yl)-propane-1,2-diamine]
Second: C[C@@H](N)CNc1nc(-c2ccncc2)nc2c1sc1cccc(Cl)c12 [compound 374, (R)-N*1*-(9-Chloro-2-pyridin-4-yl-benzo[4,5]thieno[3,2-d]pyrimidin-4-yl)-propane-1,2-diamine]
The IC50 of the first is higher: 10 to 40 µM for the first, 0.1 to 1 µM for the second.

First: Cc1csc2c(N[C@H]3CCNC3)nc(-c3ccncc3)nc12 [compound 364, (7-Methyl-2-pyridin-4-yl-thieno[3,2-d]pyrimidin-4-yl)-(S)-pyrrolidin-3-yl-amine]
Second: Cc1csc2c(O[C@H]3CCNC3)nc(-c3ccncc3)nc12 [compound 483, 7-Methyl-2-pyridin-4-yl-4-((S)-pyrrolidin-3-yloxy)-thieno[3,2-d]pyrimidine]
The IC50 of the first is lower: 1 to 10 µM for the first, 10 to 40 µM for the second. The first is the more potent here.

Work on Cc1cc(C)c2c(n1)sc1c(NC[C@@H](C)N)nc(-c3ccncc3)nc12 [compound 383, (R)-N*1*-(7,9-Dimethyl-2-pyridin-4-yl-pyrido[3′,2′:4,5]thieno[3,2-d]pyrimidin-4-yl)-propane-1,2-diamine] yielded an IC50 of 1 to 10 µM.

same assay, conditions: kinase domain PKCi at 2 μM ATP; read-out: IC50 in IMAP assay against kinase domain PKCi (Activity)

First: c1n[nH]cc1-c1nc(N[C@@H]2CCNC2)c2c3c(sc2n1)CCCC3 [compound 189, [2-(1H-Pyrazol-4-yl)-5,6,7,8-tetrahydro-benzo[4,5]thieno[2,3-d]pyrimidin-4-yl]-(R)-pyrrolidin-3-yl-amine]
Second: c1cc(-c2nc(OC[C@H]3CCCN3)c3c4c(sc3n2)CCCC4)ccn1 [compound 153, 2-Pyridin-4-yl-4-((R)-1-pyrrolidin-2-ylmethoxy)-5,6,7,8-tetrahydro-benzo[4,5]thieno[2,3-d]pyrimidine]
The IC50 of the first is lower: 0.1 to 1 µM for the first, 1 to 10 µM for the second. The first is the more potent here.

First: C[C@H](N)CNc1nc(-c2ccncc2)nc2sc3c(c12)CCCC3 [compound 5, (S)-N*1*-(2-Pyridin-4-yl-5,6,7,8-tetrahydro-benzo[4,5]thieno[2,3-d]pyrimidin-4-yl)-propane-1,2-diamine]
Second: C[C@H](N)CNc1nc(-c2ccncc2)nc2sc3c(c12)CCCCCC3 [compound 25, (S)-N*1*-(2-Pyridin-4-yl-5,6,7,8,9, 10-hexahydro-11-thia-1,3-diaza-cycloocta[a]inden-4-yl)-propane-1,2-diamine]
The IC50 of the first is lower: < 0.1 µM for the first, 1 to 10 µM for the second.

Compared with C[C@H]1CN(c2nc(-c3ccncc3)nc3sc4c(c23)CCCC4)CCN1 [compound 8, 4-((S)-3-Methyl-piperazin-1-yl)-2-pyridin-4-yl-5,6,7,8-tetrahydro-benzo[4,5]thieno[2,3-d]pyrimidine], c1cc(-c2nc(OC[C@@H]3CCCN3)c3c4c(sc3n2)CCCC4)ccn1 [compound 154, 2-Pyridin-4-yl-4-((S)-1-pyrrolidin-2-ylmethoxy)-5,6,7,8-tetrahydro-benzo[4,5]thieno[2,3-d]pyrimidine] is higher in IC50: 0.1 to 1 µM for the first, 1 to 10 µM for the second.

Cc1n[nH]c(C)c1-c1nc(NC[C@H](C)N)c2c3c(sc2n1)CCCC3 [compound 192, (S)-N*1*-[2-(3,5-Dimethyl-1H-pyrazol-4-yl)-5,6,7,8-tetrahydro-benzo[4,5]thieno[2,3-d]pyrimidin-4-yl]-propane-1,2-diamine] and CSCC[C@@H](N)CNc1nc(-c2ccncc2)nc2sc3c(c12)CCCC3 [compound 6, (R)-4-Methylsulfanyl-N*1*- (2-pyridin-4-yl-5,6,7,8-tetrahydro-benzo[4,5]thieno[2,3-d]pyrimidin-4-yl)-butane-1,2-diamine] fall in the same range of IC50: 1 to 10 µM for the first, 1 to 10 µM for the second.

First: CC1CCc2c(sc3nc(-c4ccncc4)nc(NC[C@H](C)N)c23)C1 (stereo partly drawn) [compound 22, (S)-N*1*-(7-Methyl-2-pyridin-4-yl-5,6,7,8-tetrahydro-benzo[4,5]thieno[2,3-d]pyrimidin-4-yl)-propane-1,2-diamine]
Second: C[C@H](N)COc1nc(-c2ccncc2)nc2sc3c(c12)CCCC3 [compound 144, (S)-1-Methyl-2-(2-pyridin-4-yl-5,6,7,8-tetrahydro-benzo[4,5]thieno[2,3-d]pyrimidin-4-yloxy)-ethylamine]
The IC50 of the first is higher: 1 to 10 µM for the first, 0.1 to 1 µM for the second.

Compared with N[C@@H](COc1nc(-c2ccncc2)nc2sc3c(c12)CCCC3)Cc1cccs1 [compound 170, (R)-2-(2-Pyridin-4-yl-5,6,7,8-tetrahydro-benzo[4,5]thieno[2,3-d]pyrimidin-4-yloxy)-1-thiophen-2-ylmethyl-ethylamine], N[C@H](COc1nc(-c2ccncc2)nc2sc3c(c12)CCCC3)Cc1cccs1 [compound 168, (S)-2-(2-Pyridin-4-yl-5,6,7,8-tetrahydro-benzo[4,5]thieno[2,3-d]pyrimidin-4-yloxy)-1-thiophen-2-ylmethyl-ethylamine] is lower in IC50: 10 to 40 µM for the first, 1 to 10 µM for the second.

First: NCCNc1nc(-c2ccnc(F)c2)nc2sc3c(c12)CCCC3 [compound 98, N*1*-[2-(2-Fluoro-pyridin-4-yl)-5,6,7,8-tetrahydro-benzo[4,5]thieno[2,3-d]pyrimidin-4-yl]-ethane-1,2-diamine]
Second: CN(C)CCOc1nc(-c2ccncc2)nc2sc3c(c12)CCCC3 [compound 135, dimethyl-[2-(2-pyridin-4-yl-5,6,7,8-tetrahydro-benzo[4,5]thieno[2,3-d]pyrimidin-4-yloxy)-ethyl]-amine]
The IC50 of the first is higher: 10 to 40 µM for the first, 1 to 10 µM for the second.

Cc1ccc(C[C@H](N)COc2nc(-c3ccncc3)nc3sc4c(c23)CCCC4)cc1 [compound 166, (S)-1-(4-Methyl-benzyl)-2-(2-pyridin-4-yl-5,6,7,8-tetrahydro-benzo[4,5]thieno[2,3-d]pyrimidin-4-yloxy)-ethylamine] and Cc1ccccc1C[C@H](N)COc1nc(-c2ccncc2)nc2sc3c(c12)CCCC3 [compound 174, (S)-1-(2-Methyl-benzyl)-2-(2-pyridin-4-yl-5,6,7,8-tetrahydro-benzo[4,5]thieno[2,3-d]pyrimidin-4-yloxy)-ethylamine] fall in the same range of IC50: 1 to 10 µM for the first, 1 to 10 µM for the second.

CC(C)c1cc2c(NC[C@@H](N)Cc3ccccc3)nc(-c3ccncc3)nc2s1 [compound 75, (S)-N*1*-(6-Isopropyl-2-pyridin-4-yl-thieno[2,3-d]pyrimidin-4-yl)-3-phenyl-propane-1,2-diamine] and CCc1cc2c(NCCN)nc(-c3ccncc3)nc2s1 [compound 33, N*1*-(6-Ethyl-2-pyridin-4-yl-thieno[2,3-d]pyrimidin-4-yl)-ethane-1,2-diamine] fall in the same range of IC50: 1 to 10 µM for the first, 1 to 10 µM for the second.

c1ccc(CN2CCN(c3nc(-c4ccncc4)nc4sc5c(c34)CCCC5)CC2)nc1 [compound 120, 2-Pyridin-4-yl-4-(4-pyridin-2-ylmethyl-piperazin-1-yl)-5,6,7,8-tetrahydro-benzo[4,5]thieno[2,3-d]pyrimidine] and Clc1cccc(CN2CCN(c3nc(-c4ccncc4)nc4sc5c(c34)CCCC5)CC2)c1 [compound 124, 4-[4-(3-Chloro-benzyl)-piperazin-1-yl]-2-pyridin-4-yl-5,6,7,8-tetrahydro-benzo[4,5]thieno[2,3-d]pyrimidine] fall in the same range of IC50: 10 to 40 µM for the first, 10 to 40 µM for the second.

First: Cc1sc2nc(-c3ccncc3)nc(N3CCCNCC3)c2c1-c1ccccc1 [compound 92, 4-[1,4]Diazepan-1-yl-6-methyl-5-phenyl-2-pyridin-4-yl-thieno[2,3-d]pyrimidine]
Second: CC(C)[C@@H](N)COc1nc(-c2ccncc2)nc2sc3c(c12)CCCC3 [compound 148, (R)-2-Methyl-1-(2-pyridin-4-yl-5,6,7,8-tetrahydro-benzo[4,5]thieno[2,3-d]pyrimidin-4-yloxymethyl)-propylamine]
The IC50 of the first is lower: 1 to 10 µM for the first, 10 to 40 µM for the second. The first is the more potent here.

Work on CC(C)Cc1csc2nc(-c3ccncc3)nc(NCCN)c12 [compound 28, N*1*-(5-Isobutyl-2-pyridin-4-yl-thieno[2,3-d]pyrimidin-4-yl)-ethane-1,2-diamine] yielded an IC50 of 0.1 to 1 µM.
